From patent US4542021A, “Antitumor compositions for non-injection administration” (Yamasa Shoyu Kabushiki Kaisha, priority 1978, dated 1985)
Counter-ions that a name gives are not always drawn.

Tests used:
B16 melanoma = experiment: Effectiveness against B16 melanoma (oral, 3 times a week); type: in vivo, BDF1 mice; parameters: Mean survival time (MST ± SE): unit not given here
Method: The B16 melanoma cells (1×10^6 cells) were implanted to the right side-abdominal hypoderms of BDF1 mice (male, 18 to 22 g). From the 13th day after the implantation to death the compounds to be tested were administered orally 3 times a week. The compounds to be tested were dissolved in a phosphate-buffered salt solution (PBS) containing 0.5% carboxymethyl-cellulose to a suitable concentration, and given to the mice at a dose rate of 0.1 ml per 10 g of each mouse's body weight. The increases in life span (%ILS) were calculated in accordance with the same formula as described in Test Example 1.

L1210 leukemia = experiment: Therapeutic test on L1210 leukemia (oral, once a day); type: in vivo, BDF1 mice; conditions: Mus musculus, oral, read-out: % ILS (increase in life span); for ILS at 100 mg/kg/day / ILS at 200 mg/kg/day / ILS at 400 mg/kg/day: L1210, 720 h, > means some mice survived the test period (30 days); for ILS at 12.5 mg/kg/day / ILS at 25 mg/kg/day / ILS at 50 mg/kg/day / ILS at 6.25 mg/kg/day: L1210
Method: The L1210 leukemic cell suspension (1×10^5 cells/0.2 ml) was implanted intraperitoneally in BDF1 mice (males, 18 to 22 g, females, 16 to 20 g) (7 mice per group). From 24 hours after the implantation to the 5th day thereafter, the predetermined doses of the compounds to be tested were orally administered to the mice consecutively once a day. The compounds to be tested were dissolved or suspended in a phosphate-bufferedsalt solution (PBS) containing 0.5% carboxymethylcellulose, and given at a dose rate of 0.1 ml per 10 g of each mouse's body weight. To a control group, only the same solvent as used for the dissolution of the compounds to be tested was administered in the same way. The mean survival times (MST) for each group were calculated, and the corresponding increase in life span (%ILS) was obtained in accordance with the following formula, the results of which are shown in Table 1. [formula]

[1] = Acute toxicity test, oral (Test Example 5); parameters: species or system ICR-JCL mice; conditions: mouse, in vivo, neutralized ester, male mice, 14th day
Method: An ara-CMP ester was neutralized and dissolved in saline containing 0.5% of carboxymethylcellulose, and the resulting solution was orally administered to ICR-JCL mice (males, 24 to 26 g) in a dose of 0.2 ml per 10 g of each mouse's body weight.

L1210 leukemic cells [2] = experiment: Experimental tumor proliferation model in the lymph nodes, single administration on sixth day; type: in vivo, BDF1 mice; conditions: once on sixth day
Method: (§1) L1210 leukemic cells (1×10^6 cells/0.05 ml) were implanted to the right inner-thigh hypoderms of BDF1 mice (males, 18 to 22 g). From one day after the transplantation, the compounds to be tested were administered intraperitoneally or orally to the mice once a day consecutively for 6 days. The compounds being tested were dissolved in a phosphate-buffered salt solution (PBS) containing 0.5% carboxymethylcellulose to a suitable concentration, and administered to the mice at a dose rate of 0.1 ml per 10 g of each mouse's body weight. The increases in life span (%ILS) were calculated similarly as in Test Example 1.
Furthermore, in a similar manner, each of the test compounds was administered only once on the sixth day after implantation.

[3] = Acute toxicity test, intraperitoneal (Test Example 4); parameters: species or system ICR-JCL mice; conditions: mouse, in vivo; ip, male mice, 7th day; reliability limit 95% in parentheses
Method: The C18-ara-CMP ester dissolved in saline was administered intraperitoneally to ICR-JCL mice (males, 24 to 26 g) at a dose rate of 0.2 ml per 10 g of each mouse's body weight. The LD50 value obtained on the 7th day was;

L1210 leukemic cells [4] = experiment: Experimental tumor proliferation model in the lymph nodes, once a day for 6 days; type: in vivo, BDF1 mice
Method: as §1

[5] = Acute toxicity test, oral (Test Example 4); parameters: species or system ICR-JCL mice; conditions: mouse, in vivo, male mice, observed 7 days, reliability limit 95% in parentheses
Method: The C18-ara-CMP ester was dissolved in saline containing 0.5% carboxymethylcellulose, and given orally to ICR-JCL mice (males, 24 to 26 g) at a dose rate of 0.2 ml per 10 g of each mouse's body weight. […] The LD50 value was;

[6] = in combination with a cytidinedeaminase inhibitor such as tetrahydrouridine; cited from earlier work
[7] = 50 mg/kg, * level of significance at 0.05% or lower

SMILES | Increase in life span (% ILS) (B16 melanoma; 100 mg/kg) [%] | Mean survival time (MST ± SE) (B16 melanoma; 100 mg/kg) | ILS at 100 mg/kg/day (L1210 leukemia) [%] | ILS at 200 mg/kg/day (L1210 leukemia) [%] | ILS at 400 mg/kg/day (L1210 leukemia) [%] | ILS at 12.5 mg/kg/day (L1210 leukemia) [%] | ILS at 25 mg/kg/day (L1210 leukemia) [%] | ILS at 50 mg/kg/day (L1210 leukemia) [%] | LD50 at 336 h [1] [mg/kg] | ILS at 6.25 mg/kg/day (L1210 leukemia) [%] | also measured
O=c1[nH]cc(F)c(=O)[nH]1 [5-fluorouracil] | -11 | 19.6 ± 0.98 |  |  |  |  |  |  |  |  | Increase in life span (% ILS) (B16 melanoma; 25 mg/kg): 0%; Mean survival time (MST ± SE) (B16 melanoma; 25 mg/kg): 22.0 ± 1.45; Mean survival time (MST ± SE) (B16 melanoma; 50 mg/kg): 25.0 ± 2.26; Increase in life span (% ILS) (B16 melanoma; [7]): 14%
CCCCCCCCCCCCCCCCOP(=O)(O)OC[C@H]1O[C@@H](n2ccc(N)nc2=O)[C@@H](O)[C@@H]1O [C16-ara-CMP ester, ara-CMP-cetyl ester] |  |  | 88 | 137 | > 227 | 19 | 30 | 73 | 2190 |  | 
CCCCCCCC/C=C\CCCCCCCCOP(=O)(O)OC[C@H]1O[C@@H](n2ccc(N)nc2=O)[C@@H](O)[C@@H]1O [C18-1-ara-CMP ester, ara-CMP-oleyl ester] |  |  | 109 | 120 | > 159 | 39 | 54 | 81 | 3750 | 20 | 
CCCCCCCCCCCCCCCCCCOP(=O)(O)OC[C@H]1O[C@@H](n2ccc(N)nc2=O)[C@@H](O)[C@@H]1O [C18-ara-CMP ester, ara-CMP-stearyl ester] | 17 | 25.8 ± 1.98 | > 200 | 53 | -7 | 52 | 69 | 114 | 1050 | 46 | Increase in life span (% ILS) (L1210 leukemic cells [2]; po, 250 mg/kg): 92%; Mean survival time (MST ± SE) (L1210 leukemic cells [2]; po, 250 mg/kg): 14.0 ± 0.53; Increase in life span (% ILS) (L1210 leukemic cells [2]; po, 500 mg/kg): 137%; Mean survival time (MST ± SE) (L1210 leukemic cells [2]; po, 500 mg/kg): 17.3 ± 0.49; Mean survival time (MST ± SE) (B16 melanoma; 50 mg/kg): 30.0 ± 1.30; Increase in life span (% ILS) (B16 melanoma; [7]): 36%; Increase in life span (% ILS) (B16 melanoma; 200 mg/kg): 22%; Mean survival time (MST ± SE) (B16 melanoma; 200 mg/kg): 26.8 ± 2.20; LD50 at 168 h [3]: 137 mg/kg; Increase in life span (% ILS) (L1210 leukemic cells [4]; ip, 25 mg/kg/day): 152%; Mean survival time (MST ± SE) (L1210 leukemic cells [4]; ip, 25 mg/kg/day): 17.4 ± 0.40; Increase in life span (% ILS) (L1210 leukemic cells [4]; ip, 50 mg/kg/day): 193%; Mean survival time (MST ± SE) (L1210 leukemic cells [4]; ip, 50 mg/kg/day): 20.2 ± 0.53; Increase in life span (% ILS) (L1210 leukemic cells [4]; po, 50 mg/kg/day): 165%; Mean survival time (MST ± SE) (L1210 leukemic cells [4]; po, 50 mg/kg/day): 18.3 ± 0.62; Increase in life span (% ILS) (L1210 leukemic cells [4]; po, 100 mg/kg/day): 188%; Mean survival time (MST ± SE) (L1210 leukemic cells [4]; po, 100 mg/kg/day): 19.9 ± 0.48; LD50 at 168 h [5]: 1400 mg/kg
CCCCCCCCCCCCCCCCCCCCOP(=O)(O)OC[C@H]1O[C@@H](n2ccc(N)nc2=O)[C@@H](O)[C@@H]1O [C20-ara-CMP ester, ara-CMP-eicosyl ester] |  |  | 126 | > 199 |  | 39 | 60 | 90 | 2720 | 19 | 
Nc1ccn([C@@H]2O[C@H](CO)[C@@H](O)[C@@H]2O)c(=O)n1 [ara-C (hydrochloride), 1-β-D-arabinofuranosyl cytosine, reference compound] | 22 | 26.8 ± 1.50 | 22 | 34 | 67 |  |  |  |  |  | Increase in life span (% ILS) (L1210 leukemic cells [2]; ip, 250 mg/kg): 36%; Mean survival time (MST ± SE) (L1210 leukemic cells [2]; ip, 250 mg/kg): 9.9 ± 0.13; Increase in life span (% ILS) (L1210 leukemic cells [2]; ip, 500 mg/kg): 49%; Mean survival time (MST ± SE) (L1210 leukemic cells [2]; ip, 500 mg/kg): 10.9 ± 0.23; Increase in life span (% ILS) (B16 melanoma; 200 mg/kg): -5%; Mean survival time (MST ± SE) (B16 melanoma; 200 mg/kg): 21.0 ± 1.76; Increase in life span (% ILS) (B16 melanoma; 400 mg/kg): 1%; Mean survival time (MST ± SE) (B16 melanoma; 400 mg/kg): 22.2 ± 2.82; Increase in life span (% ILS) (L1210 leukemic cells [4]; ip, 50 mg/kg/day): 101%; Mean survival time (MST ± SE) (L1210 leukemic cells [4]; ip, 50 mg/kg/day): 13.9 ± 0.59; Increase in life span (% ILS) (L1210 leukemic cells [4]; ip, 100 mg/kg/day): 110%; Mean survival time (MST ± SE) (L1210 leukemic cells [4]; ip, 100 mg/kg/day): 14.5 ± 0.62
Nc1ccn([C@@H]2O[C@H](CO)[C@@H](O)[C@@H]2O)c(=O)n1 [ara-C, 1-β-D-arabinofuranosyl cytosine] |  |  |  |  |  |  |  |  |  |  | effectiveness of oral administration [6]: effective in combination with a cytidinedeaminase inhibitor such as tetrahydrouridine
